Results as given in patent US20260103471A1, “CYCLIC UREA THIAZOLYL COMPOUNDS FOR TREATMENT OF HSV” (Assembly Biosciences, Inc., priority 2022, published 2026).
pEC50: −log10 of the molar value.

What follows are compounds tested on HSV-2 G strain (assay: HSV-2 Antiviral Assay (Vero cells, cell viability)). Conditions: Human alphaherpesvirus 2, Vero, 120 h, Vero cells, 160 TCID50 HSV-2 G strain, 5 days, cell viability.
Assay type: cell-based
Description: Vero cells were cultured in Dulbecco's Modified Eagle Medium (DMVEM) supplemented with […] and 100 units/mL penicillin and streptomycin. The cells were passaged 2-3 times per week to maintain sub-confluent densities.
Vero cells were seeded into 96-well plates at a density of 1.0×10^4 cells per well and allowed to attach overnight. Following attachment, the media was replaced with 50 μL of infection medium (DMEM supplemented with 2% fetal bovine serum and 100 units/mL penicillin and streptomycin). A Tecan D300e digital dispenser was then used to add compounds to the culture using an 8-point 3-fold serial dilution format. The DMSO concentration was normalized to 0.5% for all treatments. Following compound addition, 50 μL of infection medium containing 160 TCID50 HSV-2 G strain was added to the cells and incubated at 37° C. for 5 days. After the incubation, 10 μL/well of WST-8 chromogenic reagent was added and the plates incubated at 37° C. for 3 hours. Following the incubation, cell viability was quantified by measuring the absorbance at 460 nm and 620 nm using a Tecan Infinite M1000 Pro plate reader.

Row | pEC50 | Compound
1 | > 7.00 | Cc1nc(N2CC3(COC3)CN(c3ccc(-c4cc(F)ccc4F)cc3)C2=O)sc1[S@@](C)(=N)=O (single isomer, unassigned) [Compound 432]
2 | > 7.00 | COc1cc(Cl)c(F)c(-c2ccc(N3CCCN(c4nc(C)c(S(N)(=O)=O)s4)C3=O)cc2)c1 [Compound 218]
3 | 6.00 to 7.00 | Cc1nc(N2CCCN(c3ccc(-c4cccn5cncc45)cc3)C2=O)sc1S(N)(=O)=O [Compound 65]
4 | > 7.00 | CSc1ccccc1-c1ccc(N2CCCN(c3nc(C)c(S(N)(=O)=O)s3)C2=O)cc1 [Compound 11]
5 | 6.00 to 7.00 | Cc1nc(N2C[C@H](C(N)=O)CN(c3ccc(-c4cc(F)ccc4F)cc3)C2=O)sc1S(N)(=O)=O (single isomer, unassigned) [Compound 382]
6 | > 7.00 | Cc1nc(N2CCCN(c3ccc(-c4cc(F)ccc4F)cc3)C2=O)sc1S(=O)(=O)NCCCF [Compound 391]
7 | > 7.00 | Cc1nc(N2CCCN(c3ccc(-c4cc(Cl)c(Cl)cn4)cc3)C2=O)sc1S(N)(=O)=O [Compound 234]
8 | 6.00 to 7.00 | Cc1nc(N2CCCN(c3ccc(-c4ccc(F)c(F)c4)cc3)C2=O)sc1S(N)(=O)=O [Compound 190]
9 | 6.00 to 7.00 | Cc1nc(N2CCCN(c3ccc(-c4cc(-c5cncs5)ccc4F)cc3)C2=O)sc1S(N)(=O)=O [Compound 230]
10 | > 7.00 | Cc1nc(N2CCCN(c3ccc(-c4cc(C#N)ccc4F)cc3)C2=O)sc1S(N)(=O)=O [Compound 202]
11 | > 7.00 | Cc1nc(N2CCCN(c3ccc(-c4cc(F)cc5nsnc45)cc3)C2=O)sc1S(=O)(=O)NCCCO [Compound 418]
12 | > 7.00 | Cc1nc(N2C[C@H](F)CN(c3ccc(-c4cc(F)ccc4F)cc3)C2=O)sc1S(=O)(=O)NCCO (single isomer, unassigned) [Compound 414]
13 | > 7.00 | COc1ccc(F)cc1-c1ccc(N2CCCN(c3nc(C)c(S(N)(=O)=O)s3)C2=O)cc1 [Compound 203]
14 | 5.30 to 6.00 | Cc1nc(N2CC3(CC3)CN(c3ccc(-c4nnco4)cc3)C2=O)sc1S(N)(=O)=O [Compound 335]
15 | > 7.00 | Cc1nc(N2CCCN(c3ccc(-c4cc(C(F)(F)F)cc5c4cnn5C)cc3)C2=O)sc1S(N)(=O)=O [Compound 287]
16 | 6.00 to 7.00 | Cc1nc(N2CCCN(c3ccc(-c4cc(F)ccc4F)cc3)C2=O)sc1S(=O)(=O)N1CC[C@@H](N)C1 [Compound 399]
17 | > 7.00 | Cc1nc(N2CCCN(c3ccc(-c4cccc5ccnn45)cc3)C2=O)sc1S(N)(=O)=O [Compound 248]
18 | > 7.00 | Cc1nc(N2C[C@@H](C(C)(C)F)CN(c3ccc(-c4cc(F)ccc4F)cc3)C2=O)sc1S(N)(=O)=O (single isomer, unassigned) [Compound 351]
19 | > 7.00 | Cc1nc(N2CC(F)CN(c3ccc(-c4cc(F)ccc4F)cc3)C2=O)sc1S(=O)(=O)NCCO (centres unmarked) [Compound 413]
20 | 6.00 to 7.00 | Cc1nc(N2CC(C(C)(C)O)CN(c3ccc(-c4snc5ccccc45)cc3)C2=O)sc1S(N)(=O)=O (centres unmarked) [Compound 348]
21 | 6.00 to 7.00 | CN=S(C)(=O)c1sc(N2CCCN(c3ccc(-c4cc(F)ccc4F)cc3)C2=O)nc1C (centres unmarked) [Compound 151]
22 | > 7.00 | Cc1nc(N2CCCN(c3ccc(-c4cc(F)ccc4F)cc3)C2=O)sc1S(=O)(=O)NCC(C)CO (centres unmarked) [Compound 394]
23 | > 7.00 | Cc1nc(N2CCCN(c3ccc(-c4cc(F)ccc4F)cc3)C2=O)sc1S(=O)(=O)Nc1ccccn1 [Compound 406]
24 | 6.00 to 7.00 | Cc1nc(N2CCCN(c3ccc(-c4cc(F)cc5cc(C(C)(C)F)sc45)cc3)C2=O)sc1S(N)(=O)=O [Compound 284]
25 | 6.00 to 7.00 | Cc1nc(N2CCCN(c3ccc(-c4cc(F)c(F)c(F)c4)cc3)C2=O)sc1S(N)(=O)=O [Compound 188]

Row | pEC50 | Compound
26 | > 7.00 | Cc1nc(N2CC3(COC3)CN(c3ccc(-c4cc(F)cc5nsnc45)cc3)C2=O)sc1S(N)(=O)=O [Compound 340]
27 | > 7.00 | Cc1nc(N2CCCN(c3ccc(-c4cc(F)cc5nc(C(F)(F)F)sc45)cc3)C2=O)sc1S(N)(=O)=O [Compound 257]
28 | 6.00 to 7.00 | Cc1nc(N2CCCN(c3ccc(-c4cc(F)ccc4SC(F)(F)F)cc3)C2=O)sc1S(N)(=O)=O [Compound 219]
29 | 5.30 to 6.00 | CO[C@@H]1CN(c2ccc(-c3cc(F)ccc3F)cc2)C(=O)N(c2nc(C)c(S(N)(=O)=O)s2)C1 (single isomer, unassigned) [Compound 358]
30 | > 7.00 | Cc1nc(N2CCCN(c3ccc(-c4cc(F)ccc4F)cc3)C2=O)sc1S(=O)(=O)NCCCCO [Compound 389]
31 | 6.00 to 7.00 | Cc1nc(N2CCCN(c3ccc(-c4nccc5c4cnn5C)cc3)C2=O)sc1S(N)(=O)=O [Compound 261]
32 | > 7.00 | Cc1nc(N2CCCN(c3ccc(-c4cc(F)cc(F)c4O)cc3)C2=O)sc1S(N)(=O)=O [Compound 215]
33 | 6.00 to 7.00 | Cc1nc(N2CC(C(N)=O)CN(c3ccc(-c4cc(F)ccc4F)cc3)C2=O)sc1S(N)(=O)=O (centres unmarked) [Compound 381]
34 | > 7.00 | Cc1nc(N2CC3(COC3)CN(c3ccc(-c4cc(F)ccc4F)cc3)C2=O)sc1[S@](C)(=N)=O (single isomer, unassigned) [Compound 433]
35 | > 7.00 | Cc1nc(N2CCCN(c3ccc(-c4cc(F)cc5cc(C#N)sc45)cc3)C2=O)sc1S(N)(=O)=O [Compound 276]
36 | > 7.00 | COc1c(F)cc(F)cc1-c1ccc(N2CC(F)(F)CN(c3nc(C)c(S(N)(=O)=O)s3)C2=O)cc1 [Compound 375]
37 | 5.30 to 6.00 | Cc1nc(N2CCCN(c3ccc(-c4nccn5cncc45)cc3)C2=O)sc1S(N)(=O)=O [Compound 262]
38 | > 7.00 | CSc1ccc(F)cc1-c1ccc(N2CCCN(c3nc(C)c(S(N)(=O)=O)s3)C2=O)cc1 [Compound 223]
39 | > 7.00 | Cc1nc(N2C[C@@H](C(F)F)CN(c3ccc(-c4cc(F)ccc4F)cc3)C2=O)sc1S(N)(=O)=O (single isomer, unassigned) [Compound 370]
40 | > 7.00 | COc1ccc(F)cc1-c1ccc(N2CC3(COC3)CN(c3nc(C)c(S(N)(=O)=O)s3)C2=O)cc1 [Compound 378]
41 | > 7.00 | Cc1nc(N2CC3(CCCC3)CN(c3ccc(-c4cc(F)ccc4F)cc3)C2=O)sc1S(N)(=O)=O [Compound 336]
42 | 6.00 to 7.00 | COc1ccncc1-c1ccc(N2CCCN(c3nc(C)c(S(N)(=O)=O)s3)C2=O)cc1 [Compound 233]
43 | > 7.00 | Cc1nc(N2CC(C)CN(c3ccc(-c4ccccc4Cl)cc3)C2=O)sc1S(N)(=O)=O (centres unmarked) [Compound 321]
44 | > 7.00 | Cc1nc(N2C[C@H](F)CN(c3ccc(-c4cc(F)ccc4F)cc3)C2=O)sc1S(N)(=O)=O (single isomer, unassigned) [Compound 364]
45 | > 7.00 | Cc1nc(N2CCCN(c3ccc(-c4cccc5c4C(F)(F)CO5)cc3)C2=O)sc1S(N)(=O)=O [Compound 264]
46 | > 7.00 | Cc1nc(N2C[C@@H](F)CN(c3ccc(-c4cc(F)ccc4F)cc3)C2=O)sc1S(N)(=O)=O (single isomer, unassigned) [Compound 365]
47 | > 7.00 | Cc1nc(N2CCCN(c3ccc(-c4cc(F)cc(/C=C/C#N)c4)cc3)C2=O)sc1S(N)(=O)=O [Compound 192]
48 | > 7.00 | Cc1nc(N2CCCCN(c3ccc(-c4cc(F)ccc4F)cc3)C2=O)sc1[S@@](C)(=N)=O (single isomer, unassigned) [Compound 426]
49 | > 7.00 | Cc1nc(N2CCCN(c3ccc(-c4cccc(-c5cscn5)c4)cc3)C2=O)sc1S(N)(=O)=O [Compound 229]

Same assay, conditions: Vero cells, 160 TCID50 HSV-2 G strain, 5 days, cell viability

Row | pEC50 | Compound
50 | 6.00 to 7.00 | Cc1nc(N2CCCN(c3ccc(-c4cccc5ccnn45)cc3)C2=O)sc1S(N)(=O)=O [Compound 64]
